Reference: ChEMBL document CHEMBL1130592, “The synthesis and biological activity of a novel series of diazepine MMP inhibitors” (Bioorg Med Chem Lett, 1998)

What was measured:
[1] = biological target: T1, Interstitial collagenase (Homo sapiens, UniProt P03956); assay: Inhibition of matrix metalloprotease-1 (MMP-1)
T1 sequence (P03956 whole entry): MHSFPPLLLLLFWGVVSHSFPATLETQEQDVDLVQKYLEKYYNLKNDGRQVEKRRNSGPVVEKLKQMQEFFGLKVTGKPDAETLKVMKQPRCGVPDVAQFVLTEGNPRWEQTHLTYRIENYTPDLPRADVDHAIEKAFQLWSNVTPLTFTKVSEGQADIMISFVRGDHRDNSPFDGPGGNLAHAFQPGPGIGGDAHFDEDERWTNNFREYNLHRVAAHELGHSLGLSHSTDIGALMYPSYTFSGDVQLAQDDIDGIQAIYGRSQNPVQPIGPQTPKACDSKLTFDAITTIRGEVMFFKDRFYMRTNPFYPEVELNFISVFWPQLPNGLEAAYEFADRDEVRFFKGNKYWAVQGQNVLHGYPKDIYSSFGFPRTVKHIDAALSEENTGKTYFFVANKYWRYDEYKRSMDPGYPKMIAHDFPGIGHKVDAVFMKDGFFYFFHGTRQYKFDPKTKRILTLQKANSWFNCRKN

[2] = biological target: Matrix metalloproteinase-9 (Homo sapiens, UniProt P14780); assay: Inhibition of matrix metalloprotease-9 (MMP-9)
Matrix metalloproteinase-9, sequence (P14780 whole entry): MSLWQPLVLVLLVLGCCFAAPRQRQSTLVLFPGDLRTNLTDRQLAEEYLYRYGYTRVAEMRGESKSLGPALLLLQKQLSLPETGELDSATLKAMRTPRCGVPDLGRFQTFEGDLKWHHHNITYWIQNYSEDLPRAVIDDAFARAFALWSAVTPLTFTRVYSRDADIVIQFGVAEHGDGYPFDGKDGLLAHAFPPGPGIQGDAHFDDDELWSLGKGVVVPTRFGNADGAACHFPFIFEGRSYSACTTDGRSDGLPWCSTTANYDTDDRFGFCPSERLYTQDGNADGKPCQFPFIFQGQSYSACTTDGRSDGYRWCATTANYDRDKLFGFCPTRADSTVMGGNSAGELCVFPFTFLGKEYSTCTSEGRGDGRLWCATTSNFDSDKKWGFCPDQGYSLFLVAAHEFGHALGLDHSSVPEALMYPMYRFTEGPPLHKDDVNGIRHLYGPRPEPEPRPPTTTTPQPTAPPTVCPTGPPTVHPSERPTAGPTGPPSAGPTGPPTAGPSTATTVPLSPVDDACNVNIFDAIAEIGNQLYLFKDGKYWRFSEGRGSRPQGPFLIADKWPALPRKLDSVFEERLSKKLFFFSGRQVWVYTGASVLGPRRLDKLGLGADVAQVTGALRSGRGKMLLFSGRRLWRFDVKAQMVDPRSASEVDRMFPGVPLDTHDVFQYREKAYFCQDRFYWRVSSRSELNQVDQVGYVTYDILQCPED

[3] = biological target: Collagenase 3 (Homo sapiens, UniProt P45452)
Description: Inhibition of matrix metalloprotease-13 (MMP-13)

In the case of `COc1ccc(S(=O)(=O)N2CCCN(C(=O)N[C@@H](C)c3ccccc3)CC2C(=O)NO)cc1` (stereo partly specified), the IC50 [1] is reported as 312 nM, the IC50 [2] is reported as 9.2 nM and the IC50 [3] is reported as 10.4 nM.

`COc1ccc(S(=O)(=O)N2CCCN(C(=O)OC(C)(C)C)CC2C(=O)NO)cc1` (stereo unspecified) gave an IC50 [1] of 618 nM, an IC50 [2] of 9.1 nM and an IC50 [3] of 26 nM.

`COc1ccc(S(=O)(=O)N2CCCN(C(=O)Nc3ccccc3)CC2C(=O)NO)cc1` (stereo unspecified) was tested, and the IC50 [1] was 309 nM, the IC50 [2] was 18 nM and the IC50 [3] was 17 nM.

For `COc1ccc(S(=O)(=O)N2CCCN(C(=O)c3ccccc3-c3ccccc3)CC2C(=O)NO)cc1` (stereo unspecified), the IC50 [1] was 116 nM, the IC50 [2] was 3.3 nM and the IC50 [3] was 4.6 nM.

For `COc1ccc(S(=O)(=O)N2CCCN(C(=O)c3ccccc3)CC2C(=O)NO)cc1` (stereo unspecified), the IC50 [1] was 45 nM, the IC50 [2] was 2 nM and the IC50 [3] was 2.2 nM.

Work on `COc1ccc(S(=O)(=O)N2CCCN(C(=O)C(C)(C)C)CC2C(=O)NO)cc1` (stereo unspecified) yielded an IC50 [1] of 251 nM, an IC50 [2] of 4.8 nM and an IC50 [3] of 11 nM.

With `COc1ccc(S(=O)(=O)N2CCCN(C(=O)c3ccc(OC(F)(F)F)cc3)CC2C(=O)NO)cc1` (stereo unspecified) the IC50 [1] was 128 nM, the IC50 [2] was 4 nM and the IC50 [3] was 6.2 nM.

`COc1ccc(S(=O)(=O)N2CCCN(Cc3ccccc3)CC2C(=O)NO)cc1` (stereo unspecified) gave an IC50 [1] of 445 nM, an IC50 [2] of 31 nM and an IC50 [3] of 65 nM.

Work on `COc1ccc(S(=O)(=O)N2CCCN(C(=O)CN)CC2C(=O)NO)cc1` (stereo unspecified) yielded an IC50 [1] of 703 nM, an IC50 [2] of 157 nM and an IC50 [3] of 46 nM.

Compound `COc1ccc(S(=O)(=O)N2CCCNCC2C(=O)NO)cc1` (stereo unspecified) has an IC50 [1] of 91 nM, an IC50 [2] of 60 nM and an IC50 [3] of 5.1 nM.

With `COc1ccc(S(=O)(=O)N2CCCN(C(=O)CNC(=O)OC(C)(C)C)CC2C(=O)NO)cc1` (stereo unspecified) the IC50 [1] was 690 nM, the IC50 [2] was 23 nM and the IC50 [3] was 16 nM.

With `O=C(NO)C1CN(C(=O)c2ccccc2)CCCN1S(=O)(=O)c1ccc(Oc2ccccc2)cc1` (stereo unspecified) the IC50 [1] was 22 nM, the IC50 [2] was 1.2 nM and the IC50 [3] was 1.3 nM.
